Values joined by “and” are separate entries in the source; they are usually repeats but may differ in a detail not shown here. Identical values can stand only once.
Legend:
[1] = tested on: prostate; experiment: Hershberger test, juvenile castrated male rat: prostate weight; assay type: in vivo; conditions: ORX juvenile rats, 7 days
Text: (§1) The test by Hershberger et al. (1953) is used as a screening test method for detecting androgenic properties:
(§2) Principle. The function and size of the accessory reproductive glands (seminal vesicles, prostate) and of the muscle (e.g. M. levator ani) are androgen dependent. Castration leads to the atrophy of these organs, the substitution with androgenic compounds stimulates growth and function in a dose dependent manner.
(§3) Test description. In the juvenile male castrated rat, pharmacologically active agonists of androgens stimulate the growth of the prostate, seminal vesicles (androgenic property) and Musculus levator ani (anabolic property). The treatment for seven days of juvenile castrated male rats with daily administration of compound A: 11β-Fluoro-17β-hydroxy-7α-methyl-estr-4-en-3-one,(different doses), compound B: 7α-methyl-19-nortestosterone (different doses), testosterone propionate (reference) and benzylbenzoate/ricinus oil (solvent and control), respectively, was used to determine the androgenic and anabolic potency of eF-MENT. Analyses: relative weights of prostate, seminal vesicles and M. levator ani.
(§4) Animals: ORX, juvenile rats, duration of treatment: 7 days.

[2] = tested on: seminal vesicles; experiment: Hershberger test, juvenile castrated male rat: seminal vesicles weight; assay type: in vivo; conditions: ORX juvenile rats, 7 days
Text: as §1, §2, §3, §4

[3] = tested on: M. levator ani; experiment: Hershberger test, juvenile castrated male rat: M. levator ani weight; assay type: in vivo; conditions: ORX juvenile rats, 7 days
Text: as §1, §2, §3, §4

[4] = Stability in liver microsomes, human; assay type: in vitro ADME; conditions: 3 μM
Method: (§5) The metabolic stability of the compounds has been tested in liver microsomes of various species (commercially available). It is possible to make predictions as to the first-pass-metabolism in human by using human test material. A rapid degradation of the test material gives hints at low oral bio-availability of the substance tested.
(§6) The amount of the remaining compound is quantified by comparison with the amount remaining after 0 mins.
(§7) Species Specific Stability of Test Compounds in Liver at a Concentration of 3 μM

[5] = Stability in liver microsomes, mouse; assay type: in vitro ADME; conditions: 3 μM
Method: as §5, §6, §7

[6] = Stability in liver microsomes, rat; assay type: in vitro ADME; conditions: 3 μM
Method: as §5, §6, §7

[7] = tested on: prostate, seminal vesicles and M. levator ani; experiment: Anabolic and androgenic activity in the juvenile male rat (Hershberger), overall; assay type: in vivo; conditions: compared with prior art compound B
Text: as §1, §2, §3

[8] = Stability in liver microsomes of various species, overall; assay type: in vitro ADME; conditions: compared with compounds of the prior art
Method: as §5, §6

C[C@@H]1CC2=CC(=O)CC[C@@H]2[C@@H]2[C@@H]1[C@@H]1CC[C@H](O)[C@@]1(C)C[C@@H]2F [Compound A, 11β-Fluoro-17β-hydroxy-7α-methyl-estr-4-en-3-one]
Prostate Stimulation [mean] ([1]; dose 0.015 mg*kg^-1*day^-1): 30.0 | Prostate rel. Weight ([1]; dose 0.015 mg*kg^-1*day^-1): 19.7 mg/100 g and 18.5 mg/100 g | Prostate Stimulation [mean] ([1]; dose 0.03 mg*kg^-1*day^-1): 40.1 | Prostate rel. Weight ([1]; dose 0.03 mg*kg^-1*day^-1): 25.2 mg/100 g | Prostate Stimulation [mean] ([1]; dose 0.05 mg*kg^-1*day^-1): 76.6 | Prostate rel. Weight ([1]; dose 0.05 mg*kg^-1*day^-1): 34.1 mg/100 g | Prostate Stimulation [mean] ([1]; dose 0.15 mg*kg^-1*day^-1): 93.8 | Prostate rel. Weight ([1]; dose 0.15 mg*kg^-1*day^-1): 41.7 mg/100 g and 44.9 mg/100 g and 47.5 mg/100 g | Prostate Stimulation [mean] ([1]; dose 0.3 mg*kg^-1*day^-1): 125.1 | Prostate rel. Weight ([1]; dose 0.3 mg*kg^-1*day^-1): 59.5 mg/100 g | Prostate Stimulation [mean] ([1]; dose 1.5 mg*kg^-1*day^-1): 137.3 | Prostate rel. Weight ([1]; dose 1.5 mg*kg^-1*day^-1): 64.6 mg/100 g | Seminal vesicles Stimulation [mean] ([2]; dose 0.015 mg*kg^-1*day^-1): 18.6 | Seminal vesicles rel. Gewicht ([2]; dose 0.015 mg*kg^-1*day^-1): 18.6 mg/100 g and 15.5 mg/100 g | Seminal vesicles Stimulation [mean] ([2]; dose 0.03 mg*kg^-1*day^-1): 35.6 | Seminal vesicles rel. Gewicht ([2]; dose 0.03 mg*kg^-1*day^-1): 26.8 mg/100 g | Seminal vesicles Stimulation [mean] ([2]; dose 0.05 mg*kg^-1*day^-1): 59.2 | Seminal vesicles rel. Gewicht ([2]; dose 0.05 mg*kg^-1*day^-1): 43.6 mg/100 g | Seminal vesicles Stimulation [mean] ([2]; dose 0.15 mg*kg^-1*day^-1): 85.5 | Seminal vesicles rel. Gewicht ([2]; dose 0.15 mg*kg^-1*day^-1): 49.3 mg/100 g and 57.9 mg/100 g and 64.4 mg/100 g | Seminal vesicles Stimulation [mean] ([2]; dose 0.3 mg*kg^-1*day^-1): 144.8 | Seminal vesicles rel. Gewicht ([2]; dose 0.3 mg*kg^-1*day^-1): 93.4 mg/100 g | Seminal vesicles Stimulation [mean] ([2]; dose 1.5 mg*kg^-1*day^-1): 189.3 | Seminal vesicles rel. Gewicht ([2]; dose 1.5 mg*kg^-1*day^-1): 120.0 mg/100 g | M. levator ani Stimulation [mean] ([3]; dose 0.015 mg*kg^-1*day^-1): 79.5 | M. levator ani rel. Weight ([3]; dose 0.015 mg*kg^-1*day^-1): 54.9 mg/100 g and 50.8 mg/100 g | M. levator ani Stimulation [mean] ([3]; dose 0.03 mg*kg^-1*day^-1): 93.3 | M. levator ani rel. Weight ([3]; dose 0.03 mg*kg^-1*day^-1): 56.5 mg/100 g | M. levator ani Stimulation [mean] ([3]; dose 0.05 mg*kg^-1*day^-1): 118.0 | M. levator ani rel. Weight ([3]; dose 0.05 mg*kg^-1*day^-1): 59.4 mg/100 g | M. levator ani Stimulation [mean] ([3]; dose 0.15 mg*kg^-1*day^-1): 154.5 | M. levator ani Stimulation [mean] ([3]; dose 0.3 mg*kg^-1*day^-1): 180.4 | M. levator ani rel. Weight ([3]; dose 0.3 mg*kg^-1*day^-1): 69.8 mg/100 g | M. levator ani Stimulation [mean] ([3]; dose 1.5 mg*kg^-1*day^-1): 181.0 | M. levator ani rel. Weight ([3]; dose 1.5 mg*kg^-1*day^-1): 69.9 mg/100 g | (%) left unchanged after 30 min [4]: 59% | (%) left unchanged after 60 min [4]: 41% | (%) left unchanged after 30 min [5]: 20% | (%) left unchanged after 60 min [5]: 11% | (%) left unchanged after 30 min [6]: 5% | (%) left unchanged after 60 min [6]: 7% | activity profile (androgenic/anabolic) [7]: comparable to the prior art compound B | metabolic stability [8]: higher than that of compounds of the prior art

C[C@@H]1CC2=CC(=O)CC[C@@H]2[C@H]2CC[C@]3(C)[C@@H](O)CC[C@H]3[C@@H]21 [Compound B, 7α-methyl-19-nortestosterone, reference compound]
Prostate Stimulation [mean] ([1]; dose 0.005 mg*kg^-1*day^-1): 4.3 | Prostate rel. Weight ([1]; dose 0.005 mg*kg^-1*day^-1): 8.9 mg/100 g | Prostate Stimulation [mean] ([1]; dose 0.015 mg*kg^-1*day^-1): 24.0 | Prostate rel. Weight ([1]; dose 0.015 mg*kg^-1*day^-1): 14.6 mg/100 g and 20.0 mg/100 g | Prostate Stimulation [mean] ([1]; dose 0.05 mg*kg^-1*day^-1): 51.3 | Prostate rel. Weight ([1]; dose 0.05 mg*kg^-1*day^-1): 24.7 mg/100 g and 31.7 mg/100 g | Prostate Stimulation [mean] ([1]; dose 0.15 mg*kg^-1*day^-1): 90.2 | Prostate rel. Weight ([1]; dose 0.15 mg*kg^-1*day^-1): 40.6 mg/100 g | Seminal vesicles Stimulation [mean] ([2]; dose 0.005 mg*kg^-1*day^-1): 4.6 | Seminal vesicles rel. Gewicht ([2]; dose 0.005 mg*kg^-1*day^-1): 9.2 mg/100 g | Seminal vesicles Stimulation [mean] ([2]; dose 0.015 mg*kg^-1*day^-1): 17.0 | Seminal vesicles rel. Gewicht ([2]; dose 0.015 mg*kg^-1*day^-1): 13.6 mg/100 g and 19.2 mg/100 g | Seminal vesicles Stimulation [mean] ([2]; dose 0.05 mg*kg^-1*day^-1): 51.8 | Seminal vesicles rel. Gewicht ([2]; dose 0.05 mg*kg^-1*day^-1): 36.8 mg/100 g and 39.0 mg/100 g | Seminal vesicles Stimulation [mean] ([2]; dose 0.15 mg*kg^-1*day^-1): 87.8 | Seminal vesicles rel. Gewicht ([2]; dose 0.15 mg*kg^-1*day^-1): 65.5 mg/100 g | M. levator ani Stimulation [mean] ([3]; dose 0.005 mg*kg^-1*day^-1): 71.3 | M. levator ani rel. Weight ([3]; dose 0.005 mg*kg^-1*day^-1): 36.6 mg/100 g | M. levator ani Stimulation [mean] ([3]; dose 0.015 mg*kg^-1*day^-1): 92.6 | M. levator ani rel. Weight ([3]; dose 0.015 mg*kg^-1*day^-1): 38.1 mg/100 g and 53.7 mg/100 g | M. levator ani Stimulation [mean] ([3]; dose 0.05 mg*kg^-1*day^-1): 150.7 | M. levator ani rel. Weight ([3]; dose 0.05 mg*kg^-1*day^-1): 48.1 mg/100 g and 59.4 mg/100 g | M. levator ani Stimulation [mean] ([3]; dose 0.15 mg*kg^-1*day^-1): 283.4 | M. levator ani rel. Weight ([3]; dose 0.15 mg*kg^-1*day^-1): 59.4 mg/100 g | (%) left unchanged after 30 min [4]: 37% | (%) left unchanged after 60 min [4]: 19% | (%) left unchanged after 30 min [5]: 4% | (%) left unchanged after 60 min [5]: 4% | (%) left unchanged after 30 min [6]: 4% | (%) left unchanged after 60 min [6]: 6%
